According to EPA's ToxRefDB 2:

Experiments:
[1] = test system: rat; conditions: Multigenerational reproductive toxicity study, sprague dawley, Oral, Feed, dose end: 2 generation
[2] = test system: rat; conditions: Prenatal developmental toxicity study, sprague dawley, Oral, Gavage/Intubation, dose end: 16 GD
[3] = test system: dog; conditions: Subchronic oral toxicity in nonrodent, beagle, Capsule, dose end: 13 week, group: systemic
[4] = test system: rat; conditions: Subchronic oral toxicity in rodents, sprague dawley, Feed, dose end: 13 week, group: systemic
[5] = test system: mouse; conditions: Carcinogenicity, cd1, Oral, Feed, dose end: 80 week, group: systemic
[6] = test system: dog; conditions: Chronic toxicity, beagle, Oral, Capsule, dose end: 52 week, group: systemic
[7] = test system: rat; conditions: Combined chronic toxicity/carcinogenicity, sprague dawley, Oral, [Not Specified], dose end: 104 week, group: systemic
[8] = test system: dog; conditions: Sub-acute repeat dose toxicity, beagle, Oral, Feed, group: systemic
[9] = test system: rat; conditions: Subchronic oral toxicity in rodents, sprague dawley, Feed, dose end: 13 week, group: systemic; remark: listed apart in the source
[10] = test system: mouse; conditions: Subchronic oral toxicity in rodents, b6c3f1, Feed, dose end: 90 day, group: systemic
[11] = test system: rat; conditions: Multigenerational reproductive toxicity study, sprague dawley, Inhalation, Whole-Body, dose end: 2 generation
[12] = test system: rat; conditions: Prenatal developmental toxicity study, sprague dawley, Inhalation, Whole-Body, dose end: 19 GD, group: maternal
[13] = test system: rat; conditions: Combined chronic toxicity/carcinogenicity, sprague dawley, Oral, Feed, dose end: 24 month
[14] = test system: mouse; conditions: Carcinogenicity, cd1, Oral, Feed, dose end: 18 month, group: systemic
[15] = test system: rat; conditions: Prenatal developmental toxicity study, sprague dawley, Oral, Gavage/Intubation, dose end: 15 GD
[16] = test system: dog; conditions: Chronic toxicity, beagle, Oral, Capsule, dose end: 52 week
[17] = group: offspring, systemic / in life observation / body weight / offspring (pup) weight
[18] = group: parental, systemic / hematology / mean corpuscular (cell) volume (mcv) / mean corpuscular (cell) volume (mcv) + systemic / hematology / mean …
[19] = group: developmental, developmental / developmental malformation / bone / thickened + developmental / developmental malformation / bone / wavy
[20] = group: maternal, systemic / in life observation / clinical signs / abdominogenital staining + systemic / in life observation / clinical signs / discharge on …
[21] = systemic / in life observation / body weight / body weight gain + systemic / urinalysis / porphyrins / porphyrins
[22] = systemic / in life observation / body weight / body weight gain + systemic / urinalysis / porphyrins / porphyrins + systemic / hematology / …
[23] = systemic / clinical chemistry / alanine aminotransferase (alt/sgpt) / alanine aminotransferase (alt/sgpt) + systemic / clinical chemistry / …
[24] = systemic / in life observation / body weight / body weight gain + systemic / pathology microscopic / liver / inflammation
[25] = systemic / urinalysis / porphyrins / porphyrins
[26] = systemic / urinalysis / porphyrins / porphyrins + systemic / organ weight / liver / absolute
[27] = systemic / pathology microscopic / liver / discolored
[28] = systemic / pathology microscopic / liver / discolored + systemic / clinical chemistry / cholesterol / cholesterol + systemic / in life …
[29] = systemic / in life observation / body weight / body weight + systemic / in life observation / food consumption / food consumption + systemic…
[30] = group: offspring, systemic / organ weight / kidney / nos + systemic / in life observation / body weight / offspring (pup) weight + developmental / …
[31] = group: parental, systemic / pathology gross / lung / discolored
[32] = group: reproductive, reproductive / offspring survival early / birth index / live birth index + reproductive / reproductive performance / estrous cycle / corpora…
[33] = systemic / in life observation / body weight / body weight gain + systemic / in life observation / body weight / body weight + systemic / in…
[34] = group: cholinesterase, cholinesterase / cholinesterase / cholinesterase / plasma cholinesterase (che)
[35] = group: systemic, systemic / hematology / erythrocyte (rbc) count differential / erythrocyte (rbc) + systemic / hematology / hematocrit (hct) / hematocrit (…
[36] = systemic / in life observation / body weight / body weight + systemic / in life observation / food consumption / food consumption
[37] = group: developmental, developmental / developmental malformation / bone / incomplete ossification
[38] = group: developmental, developmental / developmental malformation / bone / incomplete ossification + developmental / developmental malformation / bone / …
[39] = group: maternal, systemic / in life observation / food consumption / food consumption + systemic / in life observation / body weight / body weight + systemic…
[40] = group: cholinesterase, cholinesterase / cholinesterase / cholinesterase / plasma cholinesterase (che) + cholinesterase / cholinesterase / cholinesterase / brain …
[41] = group: systemic, systemic / in life observation / clinical signs / tremors + systemic / in life observation / clinical signs / vomitting

In the case of `CCOC(=O)C(Cl)Cc1cc(-n2nc(C)n(C(F)F)c2=O)c(F)cc1Cl` (configuration not stated) [Carfentrazone-ethyl], the LEL [1, 17] is reported as 343 mg/kg/day, the LOAEL [1, 17] is reported as 343 mg/kg/day and the NEL [1, 17] is reported as 127 mg/kg/day. It also gave an NOAEL [1, 17] of 127 mg/kg/day, an LEL [1, 18] of 343 mg/kg/day and an LOAEL [1, 18] of 343 mg/kg/day. It also gave an NEL [1, 18] of 127 mg/kg/day, an NOAEL [1, 18] of 127 mg/kg/day and an LEL [2, 19] of 1250 mg/kg/day. It also gave an LOAEL [2, 19] of 1250 mg/kg/day, an NEL [2, 19] of 600 mg/kg/day and an NOAEL [2, 19] of 600 mg/kg/day. For the same molecule, the LEL [2, 20] was 600 mg/kg/day, the LOAEL [2, 20] was 600 mg/kg/day and the NEL [2, 20] was 100 mg/kg/day. For the same molecule, the NOAEL [2, 20] was 100 mg/kg/day, the LEL [3, 21] was 150 mg/kg/day and the LOAEL [3, 21] was 150 mg/kg/day. The NEL [3, 22] was 50 mg/kg/day, the NOAEL [3, 22] was 50 mg/kg/day and the LOAEL [4, 23] was 470 mg/kg/day. It also gave an NEL [4, 23] of 58 mg/kg/day, an NOAEL [4, 23] of 226 mg/kg/day and an LEL ([4]; systemic / in life observation / clinical signs / urine, discoloration + systemic / in life observation / food consumption / food …) of 226 mg/kg/day. The LEL [5, 24] was 10 mg/kg/day, the NEL [5, 24] was under 10 mg/kg/day and the NOAEL ([5]; systemic / in life observation / body weight / body weight gain + systemic / pathology microscopic / liver / inflammation + systemic / in …) was 10 mg/kg/day. It also gave an LOAEL ([5]; systemic / pathology microscopic / liver / inflammation + systemic / in life observation / mortality / mortality + systemic / pathology …) of 110 mg/kg/day, an LEL [6, 25] of 150 mg/kg/day and an LOAEL [6, 25] of 150 mg/kg/day. For the same molecule, the NEL [6, 26] was 50 mg/kg/day, the NOAEL [6, 26] was 50 mg/kg/day and the LEL [7, 27] was 12 mg/kg/day. For the same molecule, the LOAEL [7, 27] was 12 mg/kg/day, the NEL [7, 28] was 3 mg/kg/day and the NOAEL [7, 28] was 3 mg/kg/day.

With `CC(C)[C@H](C(=O)O[C@H](C#N)c1cccc(Oc2ccccc2)c1)c1ccc(Cl)cc1` [Esfenvalerate] the LOAEL ([8]; systemic / in life observation / body weight / body weight + systemic / in life observation / clinical signs / ataxia) was 7.5 mg/kg/day, the LEL ([8]; systemic / in life observation / body weight / body weight + systemic / in life observation / clinical signs / ataxia + systemic / in life …) was 7.5 mg/kg/day and the NEL [8, 29] was 2.5 mg/kg/day. The NOAEL [8, 29] was 2.5 mg/kg/day, the LOAEL ([9]; systemic / in life observation / clinical signs / jerking movements) was 7.5 mg/kg/day and the NOAEL ([9]; systemic / in life observation / clinical signs / jerking movements + systemic / in life observation / body weight / body weight gain + …) was 2.5 mg/kg/day. For the same molecule, the LEL ([9]; systemic / in life observation / clinical signs / jerking movements + systemic / organ weight / kidney / relative to body weight) was 7.5 mg/kg/day, the NEL ([9]; systemic / organ weight / kidney / relative to body weight + systemic / hematology / erythrocyte (rbc) count differential / erythrocyte (rbc…) was 2.5 mg/kg/day and the LOAEL [10, 23] was 106 mg/kg/day. The NEL [10, 23] was 10.5 mg/kg/day, the NOAEL [10, 23] was 30.5 mg/kg/day and the LEL ([10]; systemic / clinical chemistry / glucose / glucose + systemic / clinical chemistry / triglycerides / triglycerides) was 30.5 mg/kg/day.

`CI` [Methyl iodide] gave an LEL [11, 30] of 5 ppm, an LOAEL [11, 30] of 5 ppm and an NEL [11, 30] of under 5 ppm. The NOAEL [11, 30] was under 5 ppm, the LEL [11, 31] was 5 ppm and the LOAEL [11, 31] was 5 ppm. For the same molecule, the NEL [11, 31] was under 5 ppm, the NOAEL [11, 31] was under 5 ppm and the LEL [11, 32] was 50 ppm. The LOAEL [11, 32] was 50 ppm, the NEL [11, 32] was 20 ppm and the NOAEL [11, 32] was 20 ppm. It also gave an LOAEL ([12]; systemic / in life observation / body weight / body weight gain) of 60 ppm, an LEL [12, 33] of 60 ppm and an NEL [12, 33] of 20 ppm. For the same molecule, the NOAEL [12, 33] was 20 ppm.

In the case of `CCOP(=S)(OCC)SCSCC` [Phorate], the LEL [13, 34] is reported as 0.05 mg/kg/day, the LOAEL [13, 34] is reported as 0.05 mg/kg/day and the NEL [13, 34] is reported as under 0.05 mg/kg/day. For the same molecule, the NOAEL [13, 34] was under 0.05 mg/kg/day, the LEL [13, 35] was 0.3 mg/kg/day and the LOAEL [13, 35] was over 0.3 mg/kg/day. The NEL [13, 35] was 0.15 mg/kg/day, the NOAEL [13, 35] was at least 0.3 mg/kg/day and the LOAEL ([14]; systemic / in life observation / body weight / body weight) was 0.8 mg/kg/day. It also gave an LEL [14, 36] of 0.8 mg/kg/day, an NEL [14, 36] of 0.4 mg/kg/day and an NOAEL [14, 36] of 0.4 mg/kg/day. For the same molecule, the LEL [15, 37] was 0.1 mg/kg/day, the NEL [15, 37] was under 0.1 mg/kg/day and the LOAEL [15, 38] was 0.4 mg/kg/day. The NOAEL [15, 38] was 0.3 mg/kg/day, the LOAEL ([15]; group: maternal, systemic / in life observation / food consumption / food consumption) was 0.2 mg/kg/day and the LEL [15, 39] was 0.4 mg/kg/day. For the same molecule, the NEL [15, 39] was 0.3 mg/kg/day, the NOAEL [15, 39] was 0.1 mg/kg/day and the LEL [16, 34] was 0.05 mg/kg/day. The LOAEL [16, 34] was 0.05 mg/kg/day, the NEL [16, 40] was 0.01 mg/kg/day and the NOAEL [16, 40] was 0.01 mg/kg/day. The LOAEL ([16]; group: systemic, systemic / in life observation / clinical signs / tremors + systemic / in life observation / body weight / body weight gain) was 0.25 mg/kg/day, the NEL [16, 41] was 0.005 mg/kg/day and the NOAEL [16, 41] was 0.05 mg/kg/day. The LEL ([16]; group: systemic, systemic / in life observation / clinical signs / vomitting) was 0.01 mg/kg/day.
